From BigSolDB 2.1

CCn1c2ccccc2c2cc(-n3nncc3-c3ccccc3)ccc21
Conditions | solubility (mole fraction)
in acetonitrile, 281.7 K | 0.00188
in acetonitrile, 287.8 K | 0.00249
in acetonitrile, 295.4 K | 0.00335
in acetonitrile, 304.8 K | 0.00485
in acetonitrile, 312.3 K | 0.0066
in acetonitrile, 319.4 K | 0.00933
in acetonitrile, 325 K | 0.0125
in ethanol, 279.2 K | 0.000406
in ethanol, 281.5 K | 0.000428
in ethanol, 285.8 K | 0.000529
in ethanol, 288.8 K | 0.000598
in ethanol, 291.9 K | 0.000685
in ethanol, 297.2 K | 0.000847
in ethanol, 307.8 K | 0.00136
in ethanol, 313 K | 0.0017
in ethanol, 318.9 K | 0.00222
in ethanol, 323.2 K | 0.00274
in ethanol, 329 K | 0.00376
in ethyl acetate, 278.9 K | 0.00403
in ethyl acetate, 282.5 K | 0.00438
in ethyl acetate, 288.6 K | 0.00531
in ethyl acetate, 293.8 K | 0.0062
in ethyl acetate, 296.6 K | 0.00681
in ethyl acetate, 301.9 K | 0.00793
in ethyl acetate, 306.3 K | 0.00903
in ethyl acetate, 310.5 K | 0.0103
in ethyl acetate, 318 K | 0.0129
in ethyl acetate, 322.8 K | 0.0154
in ethyl acetate, 326.9 K | 0.0182
in isopropanol, 279.4 K | 0.000218
in isopropanol, 290.4 K | 0.000352
in isopropanol, 294.2 K | 0.000467
in isopropanol, 298.4 K | 0.000571
in isopropanol, 300.9 K | 0.000684
in isopropanol, 304.6 K | 0.000794
in isopropanol, 307.7 K | 0.000913
in isopropanol, 311 K | 0.00113
in isopropanol, 319.5 K | 0.00181
in isopropanol, 324.1 K | 0.00226
in isopropanol, 330.2 K | 0.00329
in methanol, 279.3 K | 0.000409
in methanol, 281.9 K | 0.000468
in methanol, 288.2 K | 0.000591
in methanol, 300.7 K | 0.000949
in methanol, 306.1 K | 0.00116
in methanol, 314.8 K | 0.00165
in methanol, 320.7 K | 0.00222
in methanol, 325 K | 0.00279
in n-butanol, 280.1 K | 0.000585
in n-butanol, 283.7 K | 0.000684
in n-butanol, 288.6 K | 0.000848
in n-butanol, 292.7 K | 0.00111
in n-butanol, 298.2 K | 0.00138
in n-butanol, 307.4 K | 0.00221
in n-butanol, 312.6 K | 0.00276
in n-butanol, 320.4 K | 0.00401
in n-butanol, 331.5 K | 0.00688
in n-propanol, 283 K | 0.000556
in n-propanol, 285.1 K | 0.00067
in n-propanol, 288.8 K | 0.000774
in n-propanol, 297.1 K | 0.00111
in n-propanol, 307 K | 0.00177
in n-propanol, 312.2 K | 0.00223
in n-propanol, 319.4 K | 0.00314
in n-propanol, 325.2 K | 0.00418
in n-propanol, 330.2 K | 0.00554
in sec-butanol, 279.9 K | 0.000287
in sec-butanol, 283.2 K | 0.000366
in sec-butanol, 291.7 K | 0.000592
in sec-butanol, 294.6 K | 0.00073
in sec-butanol, 298.4 K | 0.000892
in sec-butanol, 306.7 K | 0.00149
in sec-butanol, 315.7 K | 0.0024
in sec-butanol, 319.1 K | 0.00295
in sec-butanol, 321.3 K | 0.0034
in sec-butanol, 329.5 K | 0.0053
